The values that follow come from BindingDB's records for doi:10.1021/jm0303857 (Johnson & Johnson Pharmaceutical, 2005).

For one assay, the target named is Prothrombin (Homo sapiens, UniProt P00734). The assay is described as follows: Enzyme Inhibition Assay. Here is the method:
Thrombin-catalyzed hydrolysis rates were measured spectrophotometrically using human alpha-thrombin, a chromogenic substrate in aqueous buffer, and a microplate reader. […] The IC50 values were determined by fixing the enzyme and substrate concentrations and varying the inhibitor concentration. Ki values were determined by fixing the enzyme and inhibitor concentrations and varying the substrate concentration. Michaelis-Menton kinetics was applied to the initial reaction slopes using the program K.Cat (Bio Metallics Inc.).

Another assay has as its target T1, Serine protease 1 (Bos taurus, UniProt P00760).
T1 sequence (P00760 whole entry): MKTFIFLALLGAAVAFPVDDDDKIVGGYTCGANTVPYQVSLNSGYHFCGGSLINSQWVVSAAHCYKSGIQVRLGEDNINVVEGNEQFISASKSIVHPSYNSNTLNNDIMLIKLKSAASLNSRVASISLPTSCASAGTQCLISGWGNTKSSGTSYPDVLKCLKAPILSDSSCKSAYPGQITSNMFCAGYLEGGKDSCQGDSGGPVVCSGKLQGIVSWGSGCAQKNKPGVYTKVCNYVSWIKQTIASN
Nature of the assay: Enzyme Inhibition Assay.

Each structure is given as a SMILES string.

In general, IC50 refers to the concentration that inhibits the measured activity by half. The term Ki denotes a dissociation constant, usually derived from enzyme kinetics or from competition with a known ligand. Low values mean a stronger hold on the target, high ones a looser hold on the target.

At Prothrombin, `CCS(=O)(=O)N[C@H](Cc1ccccc1)C(=O)N1CCC[C@H]1C(=O)N[C@@H](C(=O)c1nc2ccccc2s1)C1CCC(N)CC1` (stereo partly drawn) [The relative stereochemistry of the cyclohexyl ring is trans] registered an IC50 of 460 nM. Further, the figures for the Ki at Prothrombin and at Serine protease 1 were 53 nM and 87 nM, respectively.
